Like-named read-outs stand apart in the source and are kept apart here.

Holding throughout (test): HotSpot kinase profiling
Format in all cases: biochemical

One experiment deals with T1, BRSK2 (Homo sapiens, UniProt Q8IWQ3).
T1 construct: purchased Reaction Biology Corp
T1 sequence (Q8IWQ3 1-736): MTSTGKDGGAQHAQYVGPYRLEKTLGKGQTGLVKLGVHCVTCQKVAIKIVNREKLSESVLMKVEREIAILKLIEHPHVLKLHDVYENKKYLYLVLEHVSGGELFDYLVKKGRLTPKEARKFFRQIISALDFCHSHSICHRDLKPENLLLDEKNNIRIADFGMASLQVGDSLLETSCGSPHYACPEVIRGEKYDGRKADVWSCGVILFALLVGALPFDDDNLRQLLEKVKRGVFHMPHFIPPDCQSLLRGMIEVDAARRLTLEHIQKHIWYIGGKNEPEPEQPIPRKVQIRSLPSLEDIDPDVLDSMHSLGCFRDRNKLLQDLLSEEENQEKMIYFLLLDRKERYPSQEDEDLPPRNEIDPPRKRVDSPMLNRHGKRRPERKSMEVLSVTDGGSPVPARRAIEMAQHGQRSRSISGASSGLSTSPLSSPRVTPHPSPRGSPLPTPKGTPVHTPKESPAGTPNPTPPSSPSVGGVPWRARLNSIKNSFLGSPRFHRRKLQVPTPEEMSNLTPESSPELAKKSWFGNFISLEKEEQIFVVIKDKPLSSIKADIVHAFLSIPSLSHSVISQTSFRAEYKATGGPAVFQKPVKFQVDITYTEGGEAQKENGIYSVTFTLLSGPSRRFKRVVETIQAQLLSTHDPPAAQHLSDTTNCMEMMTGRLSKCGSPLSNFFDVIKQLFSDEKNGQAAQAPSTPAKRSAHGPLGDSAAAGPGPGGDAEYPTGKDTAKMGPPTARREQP
In outline:
(§1)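 Radio-isotope P81 filtration format. Substrate + required cofactors in reaction buffer, kinase added, 2 h RT. Stop, wash with 0.1% phosphoric acid, detect. % inhibition vs DMSO; mean of duplicates where repeated.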

The target in the next experiment is T2, CDK2/cyclin A (Homo sapiens, UniProt P24941).
T2 construct: purchased Reaction Biology Corp
In outline:
as §1

The next experiment concerns the target T3, FER (Homo sapiens, UniProt P16591).
T3 construct: purchased Reaction Biology Corp
In outline: as §1

A further experiment addresses T4, HIPK3 (Homo sapiens, UniProt Q9H422).
T4 construct: purchased Reaction Biology Corp
In outline:
as §1

In another experiment the target is T5, MARK3 (Homo sapiens, UniProt P27448).
T5 construct: purchased Reaction Biology Corp
T5 sequence (P27448 whole entry): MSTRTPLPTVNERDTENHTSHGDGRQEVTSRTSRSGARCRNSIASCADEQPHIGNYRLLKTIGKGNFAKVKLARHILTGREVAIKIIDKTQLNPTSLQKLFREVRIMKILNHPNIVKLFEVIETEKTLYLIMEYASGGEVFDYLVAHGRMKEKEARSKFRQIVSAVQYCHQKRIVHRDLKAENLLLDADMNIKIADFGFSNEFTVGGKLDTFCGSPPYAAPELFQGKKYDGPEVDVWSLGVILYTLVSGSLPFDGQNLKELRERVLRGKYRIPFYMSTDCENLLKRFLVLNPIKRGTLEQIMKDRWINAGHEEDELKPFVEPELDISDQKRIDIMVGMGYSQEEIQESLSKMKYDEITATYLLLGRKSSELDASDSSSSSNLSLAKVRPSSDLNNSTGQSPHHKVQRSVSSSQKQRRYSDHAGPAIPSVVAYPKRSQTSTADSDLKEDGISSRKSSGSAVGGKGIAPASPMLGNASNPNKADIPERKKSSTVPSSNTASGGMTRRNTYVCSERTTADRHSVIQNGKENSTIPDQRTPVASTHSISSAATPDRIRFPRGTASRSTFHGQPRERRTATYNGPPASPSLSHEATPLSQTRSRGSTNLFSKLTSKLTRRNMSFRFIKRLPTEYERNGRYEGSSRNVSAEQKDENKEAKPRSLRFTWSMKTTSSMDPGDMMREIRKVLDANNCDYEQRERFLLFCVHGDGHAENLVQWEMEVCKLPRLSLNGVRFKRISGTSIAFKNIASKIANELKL
In outline: as §1

In the next experiment the test system is RAF1. As to conditions: 3 μM. In outline:
as §1

For a further experiment, the target named is T6, TAOK2/TAO1 (Homo sapiens, UniProt Q9UL54).
T6 construct: purchased Reaction Biology Corp
T6 sequence (Q9UL54 1-1235): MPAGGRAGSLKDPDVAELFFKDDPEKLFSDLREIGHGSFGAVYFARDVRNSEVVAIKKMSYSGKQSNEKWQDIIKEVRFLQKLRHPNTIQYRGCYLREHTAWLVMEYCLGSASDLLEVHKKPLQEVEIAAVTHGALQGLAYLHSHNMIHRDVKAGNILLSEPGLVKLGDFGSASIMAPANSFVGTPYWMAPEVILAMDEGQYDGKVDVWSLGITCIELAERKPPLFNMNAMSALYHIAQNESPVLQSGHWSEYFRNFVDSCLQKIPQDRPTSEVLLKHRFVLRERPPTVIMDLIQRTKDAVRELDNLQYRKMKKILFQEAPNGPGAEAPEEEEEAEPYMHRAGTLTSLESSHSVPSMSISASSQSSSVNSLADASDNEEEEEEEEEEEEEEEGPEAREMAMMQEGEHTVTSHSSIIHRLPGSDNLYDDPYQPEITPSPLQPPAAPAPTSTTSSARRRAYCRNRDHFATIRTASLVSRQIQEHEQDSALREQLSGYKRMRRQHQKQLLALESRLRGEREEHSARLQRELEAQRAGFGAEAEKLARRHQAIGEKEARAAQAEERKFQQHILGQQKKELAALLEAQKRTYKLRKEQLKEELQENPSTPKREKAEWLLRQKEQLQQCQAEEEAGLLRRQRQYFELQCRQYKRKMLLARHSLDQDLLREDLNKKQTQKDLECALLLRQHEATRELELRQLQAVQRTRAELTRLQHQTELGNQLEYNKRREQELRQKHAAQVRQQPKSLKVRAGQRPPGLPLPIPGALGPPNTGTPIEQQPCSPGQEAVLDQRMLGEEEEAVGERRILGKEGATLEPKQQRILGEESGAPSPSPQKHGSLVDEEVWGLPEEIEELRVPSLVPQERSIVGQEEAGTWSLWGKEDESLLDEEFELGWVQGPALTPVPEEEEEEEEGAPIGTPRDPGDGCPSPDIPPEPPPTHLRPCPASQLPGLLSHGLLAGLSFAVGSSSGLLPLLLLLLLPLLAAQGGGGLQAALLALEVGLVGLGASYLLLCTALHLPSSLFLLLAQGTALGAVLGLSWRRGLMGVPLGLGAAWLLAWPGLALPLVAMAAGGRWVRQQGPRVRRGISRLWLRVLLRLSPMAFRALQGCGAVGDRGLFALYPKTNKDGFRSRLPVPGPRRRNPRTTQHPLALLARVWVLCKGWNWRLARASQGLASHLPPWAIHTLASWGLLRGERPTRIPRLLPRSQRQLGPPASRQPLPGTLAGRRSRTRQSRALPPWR
In outline: as §1

Where [1] appears, read: read-out: % Enzyme Activity (relative to DMSO controls) Run 1.
Where [2] appears, read: read-out: % Enzyme Activity (relative to DMSO controls) Run 2.

T3 sequence (P16591 whole entry): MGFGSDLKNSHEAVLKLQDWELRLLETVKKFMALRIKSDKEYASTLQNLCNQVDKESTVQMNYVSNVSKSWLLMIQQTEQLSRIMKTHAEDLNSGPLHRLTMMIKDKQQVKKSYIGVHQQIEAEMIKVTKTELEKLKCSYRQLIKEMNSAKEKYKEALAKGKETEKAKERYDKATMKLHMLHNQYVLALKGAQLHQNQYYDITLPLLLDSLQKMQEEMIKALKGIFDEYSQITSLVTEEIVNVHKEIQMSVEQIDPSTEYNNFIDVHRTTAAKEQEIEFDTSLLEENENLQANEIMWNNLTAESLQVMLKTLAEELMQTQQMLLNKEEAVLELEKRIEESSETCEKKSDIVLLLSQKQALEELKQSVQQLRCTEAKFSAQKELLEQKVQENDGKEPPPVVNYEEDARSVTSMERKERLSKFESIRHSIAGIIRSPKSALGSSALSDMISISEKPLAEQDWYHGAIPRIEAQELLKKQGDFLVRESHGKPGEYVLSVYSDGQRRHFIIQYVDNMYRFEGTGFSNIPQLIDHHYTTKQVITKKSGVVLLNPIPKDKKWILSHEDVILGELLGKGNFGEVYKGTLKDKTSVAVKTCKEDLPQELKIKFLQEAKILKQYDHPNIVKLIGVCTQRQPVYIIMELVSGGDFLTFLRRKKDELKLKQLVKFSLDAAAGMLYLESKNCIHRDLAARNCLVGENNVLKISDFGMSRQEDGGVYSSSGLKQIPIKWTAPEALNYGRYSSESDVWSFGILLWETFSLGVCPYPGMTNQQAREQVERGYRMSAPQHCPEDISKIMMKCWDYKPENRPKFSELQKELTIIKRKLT
T4 sequence (Q9H422 whole entry): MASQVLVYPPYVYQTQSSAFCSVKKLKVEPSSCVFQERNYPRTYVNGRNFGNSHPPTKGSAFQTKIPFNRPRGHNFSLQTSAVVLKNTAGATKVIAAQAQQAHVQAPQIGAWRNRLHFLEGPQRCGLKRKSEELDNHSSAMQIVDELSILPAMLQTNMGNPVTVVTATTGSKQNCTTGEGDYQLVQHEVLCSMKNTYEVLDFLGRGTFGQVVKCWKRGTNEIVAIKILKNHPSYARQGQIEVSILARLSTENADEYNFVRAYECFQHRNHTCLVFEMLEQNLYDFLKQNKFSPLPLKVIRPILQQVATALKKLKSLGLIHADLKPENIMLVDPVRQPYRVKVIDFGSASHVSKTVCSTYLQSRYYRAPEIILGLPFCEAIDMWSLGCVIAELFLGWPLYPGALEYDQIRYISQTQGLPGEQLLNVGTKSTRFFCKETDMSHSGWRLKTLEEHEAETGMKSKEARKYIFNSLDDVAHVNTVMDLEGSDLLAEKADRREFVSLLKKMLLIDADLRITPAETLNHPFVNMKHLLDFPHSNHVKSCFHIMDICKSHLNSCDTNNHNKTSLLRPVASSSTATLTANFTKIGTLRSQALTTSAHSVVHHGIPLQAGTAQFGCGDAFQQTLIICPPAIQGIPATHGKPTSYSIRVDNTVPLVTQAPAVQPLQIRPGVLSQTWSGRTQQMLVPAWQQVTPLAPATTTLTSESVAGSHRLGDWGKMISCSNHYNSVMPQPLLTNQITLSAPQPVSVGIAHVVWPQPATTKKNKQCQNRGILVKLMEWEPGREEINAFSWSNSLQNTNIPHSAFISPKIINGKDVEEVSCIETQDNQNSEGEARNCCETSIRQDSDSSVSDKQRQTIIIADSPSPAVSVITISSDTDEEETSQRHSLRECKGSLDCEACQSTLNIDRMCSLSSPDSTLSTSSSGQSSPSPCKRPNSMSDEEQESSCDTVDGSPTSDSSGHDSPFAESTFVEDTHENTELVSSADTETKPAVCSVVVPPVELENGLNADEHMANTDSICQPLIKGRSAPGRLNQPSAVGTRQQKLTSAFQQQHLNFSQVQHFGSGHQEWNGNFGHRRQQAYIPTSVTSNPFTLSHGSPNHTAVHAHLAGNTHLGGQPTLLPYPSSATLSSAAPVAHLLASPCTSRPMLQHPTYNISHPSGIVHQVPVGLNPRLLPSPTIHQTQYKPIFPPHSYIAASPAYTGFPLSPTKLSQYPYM

Turning to `C=CC(=O)Nc1cccc(Nc2nc(Nc3ccc(OCCOC)c(F)c3)ncc2F)c1` [Compound 2], the inhibition at 3 µM on BRSK2 is 8.66%; against CDK2/cyclin A, 13.7%; at FER it was 11.8%; against HIPK3 it was -15.1%; against MARK3 it was -0.92%; against TAOK2/TAO1, 3.53%. Besides, the remaining activity at 3 µM at BRSK2 (setting [1]) worked out at 91%; at BRSK2 (setting [2]), 91.7%; at CDK2/cyclin A (setting [1]) it was 85.8%; on CDK2/cyclin A (setting [2]), 86.9%; on FER (setting [1]) it was 88.1%; on FER (setting [2]), 88.3%. In addition, the remaining activity at 3 µM came out at 112% on HIPK3 (setting [1]); 118% on HIPK3 (setting [2]); 101% at MARK3 (setting [1]); 100% at MARK3 (setting [2]); 98.5% on TAOK2/TAO1 (setting [1]); 94.4% at TAOK2/TAO1 (setting [2]). Further, the “% Enzyme Activity (relative to DMSO controls) Run 1” value in the experiment with RAF1 was found to be 83.34%. Besides, the “% Enzyme Activity (relative to DMSO controls) Run 2” value in the experiment with RAF1 amounted to 83.62%. In addition, the “Average % Inhibition” value in the experiment with RAF1 was 16.52%.

The values above are taken from patent US9492471B2, “Methods of treating a disease or disorder associated with Bruton'S Tyrosine Kinase” (Celgene Avilomics Research, Inc., priority 2013, dated 2016).
